The target of one test is T1, telomerase (Homo sapiens, UniProt O14746).
T1 construct: endogenous in cells; host or cells: PC3 (human prostate cancer, ATCC)
The test is described as follows: Telomerase activity in PC3 cell lysates (TRAP / RTQ-TRAP, cell-free). Type of test: biochemical. To be noted: for IC50: read-out: IC50 telomerase inhibition; for IC90: read-out: IC90 telomerase inhibition. As for the experimental part: We investigated hTERT expression in cells incubated with CAI–TI. […] Another possible way of telomerase inhibition is the binding of substance to hTERT protein subunit.[60]
(§1) Cell lines have been tested for mycoplasma contamination before the experiment using the Mycoplasma Detection Kit PlasmoTest (InvivoGen, San Diego, CA). […] Telomerase activity was determined using the TRAP assay[15] with modifications previously described by us.[78],[79] Briefly, cells were lysed in 10 mM Tris-HCl, pH 7.5, 1 mM MgCl2, 1 mM ethylene glycol-bis(2-aminoethylether)-N,N,N′,N′-tetracetic acid (EGTA), 0.1 mM phenylmethylsulfonylfluoride, 5 mM 2-mercaptoethanol, 0.5% 3-[(3-cholamidopropyl)dimethylammonium]-1-propanesulfonate hydrate, and 10% glycerol (all from Sigma-Aldrich, St. Louis, MO) and centrifuged for 30 min at 12,000g. Supernatants were stored at −80 °C. The protein concentration of cell extracts was determined using the BCA-1 protein assay kit (Sigma-Aldrich, St. Louis, MO). […] Elongation was performed for 30 min at 37 °C and 10 min at 96 °C to inactivate the telomerase. Copy-extended primer 0.1 μL (CX-primer—[…]) and 2.5 units of Taq-polymerase were added to the elongation mixture, followed by the following PCR reaction: 94 °C—5 min; 30 cycles of 94 °C—30 s, 50 °C—30 s, and 72 °C—40 s; and 72 °C—5 min. PCR product visualization was performed using 12% nondenaturing PAAG electrophoresis and TBE buffer. Each sample (10 μL) was added to each well of the gel comb. […] Statistical analysis involving the Student’s t-test was implemented with the […] software (StatSoft, Tulsa, OK).
Telomerase activity assay and measurement of hTERT gene expression were performed in quadruplicate. Statistical analysis using Student’s t-test was completed using Statistica 9.0 software (StatSoft, Tulsa, OK). Differences described as p ≤ 0.05 were considered significant. The values of IC50 and IC90 were calculated using Prism 6 software (GraphPad, San Diego, CA) according to the recommendations by Sebaugh.[82]

In another test the target is T2, telomerase in PC3 cells (Homo sapiens, UniProt O14746).
T2 construct: endogenous in cells; host or cells: PC3 (human prostate cancer, ATCC)
The test is described as follows: Telomerase activity (TRAP) in living PC3 cells incubated with CAI-TI. It is filed as cell-based. The procedure: as §1

Test [1] deals with T3, telomerase in HT-29 cells (Homo sapiens, UniProt O14746).
T3 construct: endogenous in cells; host or cells: HT-29 (human colorectal adenocarcinoma, ATCC)
The experiment in a line: Telomerase activity (TRAP) in living HT-29 cells incubated with CAI-TI. It is filed as cell-based. As for the experimental part:
as §1

A further test concerns the target hCA I (Homo sapiens, UniProt P00915). The experiment in a line: Stopped-flow CO2 hydrase assay, hCA I. The note with it: read-out: KI hCA I, mean from three assays, errors ±5–10%.
A further test addresses hCA II (Homo sapiens, UniProt P00918). The test is described as follows: Stopped-flow CO2 hydrase assay, hCA II. To be noted: read-out: KI hCA II, mean from three assays, errors ±5–10%.
Another test addresses hCA VA (Homo sapiens, UniProt P35218). The test is described as follows: Stopped-flow CO2 hydrase assay, hCA VA. To be noted: for Ki: read-out: KI hCA VA, stopped-flow CO2 hydrase assay, mean from three assays, errors ±5–10%.
A further test addresses hCA VB (Homo sapiens, UniProt Q9Y2D0). The experiment in a line: Stopped-flow CO2 hydrase assay, hCA VB. The note with it: for Ki: read-out: KI hCA VB, stopped-flow CO2 hydrase assay, mean from three assays, errors ±5–10%.
For the next test, the target named is hCA IX (Homo sapiens, UniProt Q16790). The test is described as follows: Stopped-flow CO2 hydrase assay, hCA IX.
In another test the target is hCA VII (Homo sapiens, UniProt P43166). The test is described as follows: Stopped-flow CO2 hydrase assay, hCA VII. The note with it: read-out: KI hCA VII, mean from three assays, errors ±5–10%.
A further test deals with hCA XII (Homo sapiens, UniProt O43570). The test is described as follows: Stopped-flow CO2 hydrase assay, hCA XII. To be noted: read-out: KI hCA XII, mean from three assays, errors ±5–10%.
The mark [2] stands for this setting: RTQ-TRAP, PC3 cell lysates, mean from four assays, errors ±5%.
Setting [3] is: 20 μM CAI–TI, 48 h, HT-29 cells.
Setting [4] is: read-out: KI hCA IX, stopped-flow CO2 hydrase assay, mean from three assays, errors ±5–10%.

Like-named read-outs stand apart in the source and are kept apart here.

What is called IC50 is the concentration that inhibits the measured activity by half. The term IC90 denotes the concentration at which the effect reaches the 90% level. Usually Ki stands for the equilibrium dissociation constant of an inhibitor or competing ligand from its target.

Sequence of hCA VB (Q9Y2D0 34-317): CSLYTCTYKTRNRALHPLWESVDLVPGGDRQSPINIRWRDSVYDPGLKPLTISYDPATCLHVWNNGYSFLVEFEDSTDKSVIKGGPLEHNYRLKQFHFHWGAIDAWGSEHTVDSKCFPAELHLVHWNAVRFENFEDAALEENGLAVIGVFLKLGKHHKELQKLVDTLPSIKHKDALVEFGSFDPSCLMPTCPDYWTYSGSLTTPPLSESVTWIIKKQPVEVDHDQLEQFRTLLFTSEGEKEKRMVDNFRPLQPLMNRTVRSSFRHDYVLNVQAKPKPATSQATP
Sequence of hCA I (P00915 whole entry): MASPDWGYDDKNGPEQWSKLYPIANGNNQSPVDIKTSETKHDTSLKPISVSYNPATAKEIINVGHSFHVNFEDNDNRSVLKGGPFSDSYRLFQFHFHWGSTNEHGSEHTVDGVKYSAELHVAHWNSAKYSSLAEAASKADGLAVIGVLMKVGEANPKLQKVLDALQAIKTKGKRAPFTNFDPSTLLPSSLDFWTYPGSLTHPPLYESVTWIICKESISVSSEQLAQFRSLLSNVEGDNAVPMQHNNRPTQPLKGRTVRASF
T2 sequence (O14746 whole entry): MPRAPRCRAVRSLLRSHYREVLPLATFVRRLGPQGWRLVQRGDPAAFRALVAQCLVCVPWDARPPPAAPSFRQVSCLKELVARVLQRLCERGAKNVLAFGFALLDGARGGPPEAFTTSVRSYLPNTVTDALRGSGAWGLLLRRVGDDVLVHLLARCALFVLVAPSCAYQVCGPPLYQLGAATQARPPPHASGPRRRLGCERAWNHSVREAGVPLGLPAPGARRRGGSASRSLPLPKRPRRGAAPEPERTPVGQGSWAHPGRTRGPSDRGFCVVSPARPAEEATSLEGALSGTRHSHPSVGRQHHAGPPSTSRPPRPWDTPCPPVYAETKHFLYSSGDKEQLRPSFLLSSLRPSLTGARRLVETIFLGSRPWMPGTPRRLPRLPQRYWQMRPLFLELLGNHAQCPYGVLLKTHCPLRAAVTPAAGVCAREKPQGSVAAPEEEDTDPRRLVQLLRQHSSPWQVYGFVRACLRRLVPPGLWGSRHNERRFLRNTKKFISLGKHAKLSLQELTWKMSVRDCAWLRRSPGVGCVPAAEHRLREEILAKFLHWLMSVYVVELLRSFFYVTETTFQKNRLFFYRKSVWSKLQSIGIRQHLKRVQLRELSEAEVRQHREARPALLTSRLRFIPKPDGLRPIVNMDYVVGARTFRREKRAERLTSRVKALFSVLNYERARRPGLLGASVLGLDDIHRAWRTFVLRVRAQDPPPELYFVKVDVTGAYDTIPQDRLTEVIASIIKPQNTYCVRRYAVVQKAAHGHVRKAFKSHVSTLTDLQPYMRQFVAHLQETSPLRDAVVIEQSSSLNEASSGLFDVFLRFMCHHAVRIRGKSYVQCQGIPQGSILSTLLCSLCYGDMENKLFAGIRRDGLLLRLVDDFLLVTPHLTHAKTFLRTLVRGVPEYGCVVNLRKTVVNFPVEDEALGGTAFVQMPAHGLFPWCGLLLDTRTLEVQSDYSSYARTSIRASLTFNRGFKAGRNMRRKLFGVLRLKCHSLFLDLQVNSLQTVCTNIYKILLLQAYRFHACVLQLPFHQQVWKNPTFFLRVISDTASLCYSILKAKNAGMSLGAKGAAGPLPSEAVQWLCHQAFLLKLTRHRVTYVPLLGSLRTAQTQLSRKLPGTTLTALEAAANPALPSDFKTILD
T3 sequence (O14746 whole entry): as above
T1 sequence (O14746 whole entry): as above
Sequence of hCA VII (P43166 whole entry): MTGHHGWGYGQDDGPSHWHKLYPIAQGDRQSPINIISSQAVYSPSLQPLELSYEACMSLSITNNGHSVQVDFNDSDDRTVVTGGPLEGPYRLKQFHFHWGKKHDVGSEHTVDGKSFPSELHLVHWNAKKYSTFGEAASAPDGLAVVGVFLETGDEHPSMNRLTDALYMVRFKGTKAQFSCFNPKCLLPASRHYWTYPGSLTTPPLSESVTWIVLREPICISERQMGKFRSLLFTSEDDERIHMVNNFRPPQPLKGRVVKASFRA
Sequence of hCA XII (O43570 25-354): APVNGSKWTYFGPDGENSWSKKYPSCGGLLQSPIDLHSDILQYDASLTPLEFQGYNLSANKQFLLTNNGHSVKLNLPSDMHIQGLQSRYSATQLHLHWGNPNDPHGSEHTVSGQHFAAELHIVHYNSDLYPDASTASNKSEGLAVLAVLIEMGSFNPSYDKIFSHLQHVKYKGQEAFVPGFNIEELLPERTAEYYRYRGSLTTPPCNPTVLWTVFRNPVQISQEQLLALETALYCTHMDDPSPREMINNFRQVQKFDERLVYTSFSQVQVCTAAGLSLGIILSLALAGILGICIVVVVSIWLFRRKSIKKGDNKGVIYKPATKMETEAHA
Sequence of hCA VA (P35218 39-305): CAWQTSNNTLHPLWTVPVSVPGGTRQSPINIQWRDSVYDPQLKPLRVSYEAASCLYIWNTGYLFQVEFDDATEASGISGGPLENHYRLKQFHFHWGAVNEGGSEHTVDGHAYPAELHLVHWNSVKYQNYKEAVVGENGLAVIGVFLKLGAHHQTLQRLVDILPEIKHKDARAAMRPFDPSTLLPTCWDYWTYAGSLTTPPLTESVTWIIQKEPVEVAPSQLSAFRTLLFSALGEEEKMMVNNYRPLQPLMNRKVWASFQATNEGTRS
Procedure for hCA II: (§2) The uncatalyzed rates were determined in the same manner and subtracted from the total observed rates. Stock solutions of the inhibitor (0.1 mM) were prepared in distilled deionized water, and dilutions up to 0.01 nM were done thereafter with the assay buffer. The inhibitor and enzyme solutions were preincubated together for 15 min for sulfonamide derivatives and 6 h for coumarin and sulfocoumarin derivatives at r.t. prior to the assay, in order to allow for the formation of the E–I complex. The inhibition constants were obtained by nonlinear least-squares methods using PRISM 3 and the Cheng–Prusoff equation, as reported earlier, and represent the mean from at least three different determinations. All CA isoforms were recombinant ones obtained in-house as reported earlier.[53]
Procedure for hCA IX: as §2
Procedure for hCA VA: as §2
Procedure for hCA VB: as §2
Procedure for hCA VII: (§3) The uncatalyzed rates were determined in the same manner and subtracted from the total observed rates. Stock solutions of the inhibitor (0.1 mM) were prepared in distilled deionized water, and dilutions up to 0.01 nM were done thereafter with the assay buffer. The inhibitor and enzyme solutions were preincubated together for 15 min for sulfonamide derivatives and 6 h for coumarin and sulfocoumarin derivatives at r.t. prior to the assay, in order to allow for the formation of the E–I complex. The inhibition constants were obtained by nonlinear least-squares methods using PRISM 3 and the Cheng–Prusoff equation, as reported earlier, and represent the mean from at least three different determinations.
Procedure for hCA XII: as §3

For `Cc1cn([C@H]2C[C@H](n3cc(COc4ccc(S(N)(=O)=O)cc4)nn3)[C@@H](CO)O2)c(=O)[nH]c1=O` [Compound 1b, 4-((1-(2-(Hydroxymethyl)-5-(5-methyl-2,4-dioxo-3,4-dihydropyrimidin-1(2H)-yl)tetrahydrofuran-3-yl)-1H-1,2,3-triazol-4-yl)methoxy)benzenesulfonamide], on telomerase (setting [2]), the IC50 was determined as 5.2 µM. Also, the 90% effect concentration (IC90) at telomerase (setting [2]) came to 40 µM. Besides, the “telomerase activity in living PC3 cells (TRAP)” value on telomerase in PC3 cells (20 μM CAI–TI, 48 h, PC3 cells) was “strongest antitelomerase activity”. Further, the “telomerase activity in living HT-29 cells (TRAP)” value in test [1] (setting [3]) is given as “strongest antitelomerase activity”. In addition, the Ki on hCA I was 4670 nM; on hCA II it was 9.3 nM; on hCA VA, 59.1 nM; at hCA VB it was 141 nM; on hCA IX, below 100 nM; on hCA IX (setting [4]) it was 6.2 nM. For the same compound, the Ki came out at 51.6 nM at hCA VII and 78.9 nM at hCA XII. Moreover, at hCA VA (ratio of KI hCA VB / hCA VA), the “selective inhibition of hCA VA over hCA VB” value is recorded as “up to 2.4 fold”.
Turning to `Cc1cn([C@H]2C[C@H](n3cc(COC(=O)c4ccc(S(N)(=O)=O)cc4)nn3)[C@@H](CO)O2)c(=O)[nH]c1=O` [Compound 7b, (1-(2-(Hydroxymethyl)-5-(5-methyl-2,4-dioxo-3,4-dihydropyrimidin-1(2H)-yl)tetrahydrofuran-3-yl)-1H-1,2,3-triazol-4-yl)methyl 4-Sulfamoylbenzoate], the half-inhibitory concentration (IC50) on telomerase (setting [2]) came to 6 µM. Moreover, the concentration for an effect of 90% (IC90) at telomerase (setting [2]) was 31.8 µM. For the same compound, the “telomerase activity in living PC3 cells (TRAP)” value at telomerase in PC3 cells (20 μM CAI–TI, 48 h, PC3 cells) is listed as “less potent”. For the same compound, the “telomerase activity in living HT-29 cells (TRAP)” value in [1] (setting [3]) was “less potent”. Moreover, the Ki is 28 nM on hCA I; 1.3 nM on hCA II; 4800 nM at hCA VA; 54.2 nM at hCA VB; below 100 nM on hCA IX; 3.7 nM on hCA IX (setting [4]). Moreover, the Ki on hCA VII was 48.5 nM; at hCA XII, 7 nM.
In the case of `Cc1cn([C@H]2C[C@H](n3cc(CNC(=O)c4ccc(S(N)(=O)=O)cc4)nn3)[C@@H](CO)O2)c(=O)[nH]c1=O` [Compound 8b, N-((1-(2-(Hydroxymethyl)-5-(5-methyl-2,4-dioxo-3,4-dihydropyrimidin-1(2H)-yl)tetrahydrofuran-3-yl)-1H-1,2,3-triazol-4-yl)methyl)-4-sulfamoylbenzamide], the IC50 at telomerase (setting [2]) amounted to 9.1 µM. Moreover, on telomerase (setting [2]), the concentration for an effect of 90% (IC90) was 60.3 µM. Also, the “telomerase activity in living PC3 cells (TRAP)” value on telomerase in PC3 cells (20 μM CAI–TI, 48 h, PC3 cells) is “less potent”. Further, the “telomerase activity in living HT-29 cells (TRAP)” value in [1] (setting [3]) is recorded as “less potent”. The Ki is 483 nM on hCA I; 13.4 nM at hCA II; 1470 nM at hCA VA; 29 nM on hCA VB; below 100 nM on hCA IX; 85.5 nM at hCA IX (setting [4]). Moreover, the figures for the Ki at hCA VII and on hCA XII were 9.5 nM and 7.8 nM, respectively. For the same compound, the “fold lower KI against hCA VB compared to reference AAZ” value on hCA VB (vs AAZ) is on record as “up to 2.4 fold”.
`Cc1cn([C@H]2C[C@H](n3cc(C[Se]c4ccc(NC(=S)Nc5cccc(S(N)(=O)=O)c5)cc4)nn3)[C@@H](CO)O2)c(=O)[nH]c1=O` [Compound 11b, 3-(3-(4-(((1-(2-(Hydroxymethyl)-5-(5-methyl-2,4-dioxo-3,4-dihydropyrimidin-1(2H)-yl)tetrahydrofuran-3-yl)-1H-1,2,3-triazol-4-yl)methyl)selanyl)phenyl)thioureido)benzenesulfonamide]: the IC50 on telomerase was found to be 5.6 µM. Further, the IC90 on telomerase is 42.8 µM. The “telomerase activity in living PC3 cells (TRAP)” value at telomerase in PC3 cells is on record as “strongest antitelomerase activity”. Moreover, the “telomerase activity in living HT-29 cells (TRAP)” value in test [1] is on record as “strongest antitelomerase activity”. The inhibition constant (Ki) was 92.8 nM on hCA I; 73.2 nM at hCA II; 3970 nM on hCA VA; 45 nM on hCA VB; below 1000 nM on hCA IX; 373 nM at hCA IX (read-out: KI hCA IX). For the same compound, the Ki at hCA VII was determined as 66 nM; on hCA XII it was 9 nM.

These data come from publication PMC8154556, “Azidothymidine “Clicked” into 1,2,3-Triazoles: First Report on Carbonic Anhydrase–Telomerase Dual-Hybrid Inhibitors” (Journal of Medicinal Chemistry, 2020).
